In assay [1] the target is T1, Neutrophil elastase (Homo sapiens, UniProt P08246).
T1 sequence (P08246 whole entry): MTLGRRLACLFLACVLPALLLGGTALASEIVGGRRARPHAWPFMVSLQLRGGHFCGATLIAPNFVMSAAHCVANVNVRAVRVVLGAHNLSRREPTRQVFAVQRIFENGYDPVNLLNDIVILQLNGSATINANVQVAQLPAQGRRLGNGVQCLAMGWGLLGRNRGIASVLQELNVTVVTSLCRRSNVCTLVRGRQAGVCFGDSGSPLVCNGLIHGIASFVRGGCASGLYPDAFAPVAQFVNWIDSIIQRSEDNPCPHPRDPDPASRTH
Put plainly: Inhibitory concentration against human neutrophil elastase (HNE); No inhibition.

Assay [2] deals with T2, Chymotrypsin-like elastase family member 2A (Sus scrofa, UniProt P08419).
T2 sequence (P08419 whole entry): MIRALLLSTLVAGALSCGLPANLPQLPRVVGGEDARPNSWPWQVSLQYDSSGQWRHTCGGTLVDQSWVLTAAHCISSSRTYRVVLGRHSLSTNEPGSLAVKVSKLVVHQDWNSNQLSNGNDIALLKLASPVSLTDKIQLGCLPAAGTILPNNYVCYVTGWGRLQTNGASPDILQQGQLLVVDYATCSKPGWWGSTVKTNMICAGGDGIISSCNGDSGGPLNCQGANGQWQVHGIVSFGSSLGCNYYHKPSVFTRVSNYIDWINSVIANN
Put plainly: Inhibitory concentration against porcine pancreatic elastase (PPE); No inhibition.

Assay [3] has as its target T1, Neutrophil elastase. The assay is described as follows: Inhibitory concentration against human neutrophil elastase (HNE).

By IC50 is commonly meant the midpoint of a concentration-inhibition curve. On to `CC(C)C[C@@H]1NCCN(Cc2ccccc2)C1=O`, for which the IC50 entry (against Neutrophil elastase [1]; in assay [2]) was “Not Active” in each case.

With `CCC(C)[C@@H]1NCCN(Cc2ccccc2)C1=O` (stereo partly specified), the IC50 entry (on Neutrophil elastase [1]; in assay [2]) was “Not Active” in each case.

Consider `CCC(C)[C@H]1C(=O)N(Cc2ccccc2)CCN1S(=O)(=O)c1ccc(C)cc1` (stereo partly specified), for which the IC50 result at Neutrophil elastase [1] is given as “Not Active”.

For the compound `CC(C)C[C@@H]1NCCNC1=O`, the IC50 entry (at Neutrophil elastase [1]; in assay [2]) was “Not Active” throughout.

As to `CCC(C)[C@H]1C(=O)N(S(=O)(=O)c2ccc(C)cc2)CCN1S(=O)(=O)c1ccc(C)cc1` (stereo partly specified), the IC50 result (on Neutrophil elastase [1]; in assay [2]) was “Not Active” in each case.

Regarding `CCC(C)[C@H]1C(=O)NCCN1C(=O)OC(C)(C)C` (stereo partly specified), the IC50 entry (at Neutrophil elastase [1]; in assay [2]) was “Not Active” throughout.

As for `CCC(C)[C@@H]1NCCNC1=O` (stereo partly specified), the IC50 result (on Neutrophil elastase [1]; in assay [2]) was “Not Active” in each case.

Consider `Cc1ccc(S(=O)(=O)N2CCN(Cc3ccccc3)C(=O)[C@@H]2CC(C)C)cc1`, for which the IC50 on Neutrophil elastase [3] was 28 µM.

For the compound `CC(C)C[C@H]1C(=O)NCCN1C(=O)OC(C)(C)C`, the IC50 entry (on Neutrophil elastase [1]; in assay [2]) was “Not Active” each time.

The values above are taken from ChEMBL document CHEMBL1136514, “Synthesis and evaluation of delta-lactams (piperazones) as elastase inhibitors” (Bioorg Med Chem Lett, 2003).
